Tested on: BoNT
Format: biochemical, Clostridium botulinum

Substance: (SNRTRIDQGNQRATRNleL)4K2KC(beta)A [Substrate 39]
- specific turnover over unspecific protease background cleavage reactions: shown to increase the specific turnover

From US7611856B2 (priority 2003, dated 2009)
